Earlier results in article PMC11938273 (Journal of Chemical Information and Modeling, 2025).
Structures can show the parent of a compound that is named as a salt.

Settings: in vivo; cited from earlier work

| SMILES | CNS status |
| --- | --- |
| COc1cc([C@@H]2c3cc4c(cc3[C@@H](O[C@@H]3O[C@@H]5CO[C@@H](C)O[C@H]5[C@H](O)[C@H]3O)[C@H]3COC(=O)[C@H]23)OCO4)cc(OC)c1O [Etoposide, (5S,5aR,8aR,9R)-9-(4-Hydroxy-3,5-dimethoxyphenyl)-8-oxo-5,5a,6,8,8a,9-hexahydrofuro[3′,4′:6,7]naphtho[2,3-d][1,3]dioxol-5-yl 4,6-O-[(1R)-ethylidene]-β-D-glucopyranoside] | Efflux transporter substrate |
| Cc1ccc([C@H]2C[C@@H]3CC[C@H]([C@H]2C(=O)OCCF)N3C/C=C/I)cc1 [FE-PE2i, 2-fluoroethyl (1R,2S,3S,5S)-8-((E)-3-iodoallyl)-3-(p-tolyl)-8-azabicyclo[3.2.1]octane-2-carboxylate] | Positive |
| CCSC(=O)c1c(CC)nc(-c2ccccc2)c(C(=O)OCC[18F])c1CC [FE@SUPPY, 5-(2-[18F]fluoroethyl)2,4-diethyl-3-(ethylsulfanylcarbonyl)-6-phenylpyridine-5-carboxylate] | Negative |
| C=CCN1CCC[C@H]1CNC(=O)c1cc(CCCF)cc(OC)c1OC [Fallypride, (S)-N-((1-allylpyrrolidin-2-yl)methyl)-1-(5-(3-fluoropropyl)-2,3-dimethoxyphenyl)ethenamine] | Positive |
| CN1Cc2c(C(=O)OCCF)ncn2-c2ccc(F)cc2C1=O [Fluoroethylflumazenil (FFMZ), 2-Fluoroethyl 8-fluoro-5-methyl-6-oxo-5,6-dihydro-4H-benzo [f]imidazo[1,5-a] [1, 4]diazepine-3-carboxylate] | Positive |
| O=[N+]([O-])c1nccn1CC(O)CF (stereo not drawn) [Fluoromisonidazole (FMISO), 1-Fluoro-3-(2-nitro-1H-imidazol-1-yl)propan-2-ol] | Positive |
| CNc1ccc(-c2nc3ccc(O)cc3s2)cc1F [Flutemetamol, 2-(3-fluoro-4-(methylamino)phenyl)benzo[d]thiazol-6-ol] | Positive |
| C[C@]12CC[C@@H]3c4ccc(O)cc4C[C@@H](CCCCCCCCC[S+]([O-])CCCC(F)(F)C(F)(F)F)[C@H]3[C@@H]1CC[C@@H]2O (stereo partly drawn) [Fulvestrant, (7α,17β)-7-{9-[(4,4,5,5,5-Pentafluoropentyl)sulfinyl]nonyl}estra-1(10),2,4-triene-3,17-diol] | Negative |
| COC(=O)N1CCN(C(=O)Cc2ccc(Cl)c(Cl)c2)[C@H](CN2CCCC2)C1 [GR89696, (R)-methyl 4-(2-(3,4-dichlorophenyl)acetyl)-3-(pyrrolidin-1-ylmethyl)piperazine-1-carboxylate] | Positive |
| CCC1=C(C)CN(C(=O)NCCc2ccc(S(=O)(=O)NC(=O)N[C@H]3CC[C@H](C)CC3)cc2)C1=O [Glimepiride, 3-Ethyl-4-methyl-N-[2-(4-{[(trans-4-methylcyclohexyl)carbamoyl]sulfamoyl}phenyl)ethyl]-2-oxo-2,5-dihydro-1H-pyrrole-1-carboxamide] | Negative |
| CCOc1ccc(-c2nc3cc(-c4nc5cc(N6CCN(C)CC6)ccc5[nH]4)ccc3[nH]2)cc1 [Hoechst 33342, 2′-(4-Ethoxyphenyl)-5-(4-methyl-1-piperazinyl)-1H,1′H-2,5′-bibenzimidazole] | Efflux transporter substrate |
| COC(=O)[C@H]1[C@@H](c2ccc(I)cc2)C[C@@H]2CC[C@H]1N2C/C=C/I [IPCIT, (1R,2S,3S,5S)-methyl 8-((E)-3-iodoallyl)-3-(4-iodophenyl)-8-azabicyclo[3.2.1]octane-2-carboxylate] | Positive |
| CCC(C)n1ncn(-c2ccc(N3CCN(c4ccc(OC[C@H]5CO[C@](Cn6cncn6)(c6ccc(Cl)cc6Cl)O5)cc4)CC3)cc2)c1=O (stereo partly drawn) [Itraconazole, 2-sec-Butyl-4-{4-[4-(4-{[(2R,4S)-2-(2,4-dichlorophenyl)-2-(1H-1,2,4-triazol-1-ylmethyl)-1,3-dioxolan-4-yl]methoxy}phenyl)-1-piperazinyl]phenyl}-2,4-dihydro-3H-1,2,4-triazol-3-one] | Negative |
| COC(=O)c1cnc2n1CCc1ccccc1C2=C1CCN(CCc2ccc(OCc3ccc4ccccc4n3)cc2)CC1 [Laniquidar, methyl 11-(1-(4-(quinolin-2-ylmethoxy)phenethyl)piperidin-4-ylidene)-6,11-dihydro-5H-benzo[d]imidazo[1,2-a]azepine-3-carboxylate] | Efflux transporter substrate |
| CC#CCn1c(N2CCC[C@@H](N)C2)nc2c1c(=O)n(Cc1nc(C)c3ccccc3n1)c(=O)n2C [Linagliptin, 8-(3-Amino-1-piperidinyl)-7-(2-butyn-1-yl)-3-methyl-1-[(4-methyl-2-quinazolinyl)methyl]-3,7-dihydro-1H-purine-2,6-dione] | Negative |
| CNCC(O)CCN1c2ccccc2N(c2ccccc2)S1(=O)=O (stereo not drawn) [Me@HAPTHI, 4-(2,2-Dioxido-3-phenyl-2,1,3-benzothiadiazol-1(3H)-yl)-1-(methylamino)-2-butanol] | Negative |
| O=S(=O)(O)CCS [Mesna (Coenzyme M), 2-mercaptoethane sulfonic acid] | Negative |
| COC(=O)c1cncn1[C@H](C)c1ccccc1 [Metomidate, (R)-methyl 1-(1-phenylethyl)-1H-imidazole-5-carboxylate] | Positive |

| SMILES | CNS status |
| --- | --- |
| Cn1c2c(c3ccccc31)C[C@@]1(O)C3Cc4ccc(O)c5c4C1(CCN3CC1CC1)[C@H]2O5 (stereo partly drawn) [N-Methylnaltrinidole, (8aS,14bR)-7-(cyclopropylmethyl)-14-methyl-5,6,7,8,8a,9,14, 14b-octahydro-4,8-methanobenzofuro[2,3-a]pyrido [4,3-b]carbazole-1,8a-diol] | Positive |
| Cc1c(O)cccc1C(=O)N[C@@H](CSc1ccccc1)[C@H](O)CN1C[C@H]2CCCC[C@H]2C[C@H]1C(=O)NC(C)(C)C [Nelfinavir, (3S,4aS,8aS)-2-[(2R,3R)-2-Hydroxy-3-[(3-hydroxy-2-methylbenzoyl)amino]-4-(phenylsulfanyl)butyl]-N-(2-methyl-2-propanyl)decahydro3-isoquinolinecarboxamide] | Efflux transporter substrate |
| CN(C)C(=O)Oc1cccc([N+](C)(C)C)c1 [Neostigmine, 3-[(Dimethylcarbamoyl)oxy]-N,N,N-trimethylanilinium] | Negative |
| COC(=O)C1=C(C)NC(C)=C(C(=O)OCCN(C)Cc2ccccc2)C1c1cccc([N+](=O)[O-])c1 (stereo not drawn) [Nicardipine, 2-[Benzyl(methyl)amino]ethyl methyl 2,6-dimethyl-4-(3-nitrophenyl)-1,4-dihydro-3,5-pyridinedicarboxylate] | Efflux transporter substrate |
| Fc1ncccc1OCC1C=CCN1 (stereo not drawn) [Nifene, 3-((2,5-dihydro-1H-pyrrol-2-yl)methoxy)-2-fluoropyridine] | Positive |
| Cc1nccn1CC1CCc2c(c3ccccc3n2C)C1=O (stereo not drawn) [Ondansetron, 9-Methyl-3-[(2-methyl-1H-imidazol-1-yl)methyl]-1,2,3,9-tetrahydro-4H-carbazol-4-one] | Efflux transporter substrate |
| COC(=O)[C@H]1[C@@H](c2ccc(C)cc2)C[C@@H]2CC[C@H]1N2C/C=C/I [PE2i, (1R,2S,3S,5S)-methyl 8-((E)-3-iodoallyl)-3-(p-tolyl)-8-azabicyclo[3.2.1]octane-2-carboxylate] | Positive |
| CCC(C)N(C)C(=O)c1cc2ccccc2c(-c2ccccc2Cl)n1 (stereo not drawn) [PK11195, N-(sec-butyl)-1-(2-chlorophenyl)-N-methylisoquinoline3-carboxamide] | Positive |
| CCC(=O)OC1CCNCC1 [PMP, piperidin-4-yl propionate] | Positive |
| CCC(=O)NS(=O)(=O)c1ccc(-c2c(-c3ccccc3)noc2C)cc1 [Parecoxib, N-{[4-(5-Methyl-3-phenyl-1,2-oxazol4-yl)phenyl]sulfonyl}propanamide] | Negative |
| CNC(=O)Oc1ccc2c(c1)[C@]1(C)CCN(C)[C@@H]1N2C [Physostigmine, (3aS,8aR)-1,3a,8-trimethyl-1,2,3,3a,8,8a-hexahydropyrrolo[2,3-b]indol-5-yl methylcarbamate] | Positive |
| CN/C(=C\[N+](=O)[O-])NCCSCc1ccc(CN(C)C)o1 [Ranitidine, (E)-N-{2-[({5-[(Dimethylamino)methyl]-2-furyl}methyl)sulfanyl]ethyl}-N′-methyl-2-nitro-1,1-ethenediamine] | Efflux transporter substrate |
| COC(=O)c1ccccc1-c1c2ccc(=N)cc-2oc2cc(N)ccc12 [Rhodamine 123, 6-Amino-9-[2-(methoxycarbonyl)phenyl]-3H-xanthen-3-iminium] | Efflux transporter substrate |
| CC(C)c1nc(CN(C)C(=O)N[C@H](C(=O)N[C@@H](Cc2ccccc2)C[C@H](O)[C@H](Cc2ccccc2)NC(=O)OCc2cncs2)C(C)C)cs1 [Ritonavir, (1E,2S)-N-[(2S,4S,5S)-4-Hydroxy-5-{(E)-[hydroxy(1,3-thiazol-5-ylmethoxy)methylene]amino}-1,6-diphenyl-2-hexanyl]-2-[(E)-(hydroxy{[(2-isopropyl-1,3-thiazol-4-yl)methyl](methyl)amino}methylene)amino]-3-methylbutanimidic acid] | Efflux transporter substrate |
| CS(=O)(=O)c1ccc(C2=C(c3ccccc3)C(=O)OC2)cc1 [Rofecoxib, 4-[4-(Methylsulfonyl)phenyl]-3-phenyl2(5H)-furanone] | Negative |
| COc1ccc(C2CNC(=O)C2)cc1OC1CCCC1 (stereo not drawn) [Rolipram, 4-(3-(Cyclopentyloxy)-4-methoxyphenyl)pyrrolidin-2-one] | Positive |
| CC[C@H]1OC(=O)[C@H](C)[C@@H](O[C@H]2C[C@@](C)(OC)[C@@H](O)[C@H](C)O2)[C@H](C)[C@@H](O[C@@H]2O[C@H](C)C[C@H](N(C)C)[C@H]2O)[C@](C)(O)C[C@@H](C)/C(=N\OCOCCOC)[C@H](C)[C@@H](O)[C@]1(C)O [Roxithromycin] | Negative |
| CN1CCc2cc(Cl)c(O)cc2[C@@H](c2ccccc2)C1 [SCH-23390 hydrochloride, (R)-8-chloro-3-methyl-5-phenyl-2,3,4,5-tetrahydro1H-benzo[d]azepin-7-ol] | Positive |
